Laboratory results as given in US20100204109A1, “USE OF C-TYPE NATRIURETIC PEPTIDE, ALONE OR IN COMBINATION WITH NEUROPEPTIDE AF, AS A THERAPEUTIC AGENT” (priority 2007, published 2010).
Ends that are not written are not given here.

Assays:
[1] = test system: hepatitis B virus (HBV) ayw strain; assay: HBV experimental assay system, HepG2-2.2.15, secreted HBV DNA by TaqMan PCR; assay type: cell-based; conditions: 10 micrograms per ml, six days, HBV DNA in supernatant
HCMV strain AD169 = assay: HCMV plaque formation assay in MRC-5 cells; conditions: for inhibition of HCMV plaque formation as compared to the virus control experiment: 10 micrograms per ml, MRC-5 cells, 7-10 days
HUVEC = assay: Endothelial tube formation assay; assay type: cell-based, human; conditions: 10 micrograms per ml, 20 hours, average tubule length
Description: Positive control was vehicle only. […] Raw data were expressed as average tubule lenghs in pixels±standard deviation.

[2] = test system: spleen cells of Ovalbumin-immunized Balb/c mice; assay: Th1/Th2 cytokine profiling assay; assay type: cell-based, mouse; conditions: 10 micrograms per ml; Ovalbumin restimulation; 72 hours supernatant
Description: Results from Th1/Th2 Cytokine assay:

For “Asp-Leu-Arg-Val-Asp-Thr-Lys-Ser-Arg-Ala-Ala-Trp-Ala-Arg-Leu-Leu-Gln-Glu-His-Pro-Asn-Ala-Arg-Lys-Tyr-Lys-Gly-Ala-Asn-Lys-Lys-Gly-Leu-Ser-Lys-Gly-Cys-Phe-Gly-Leu-Lys-Leu-Asp-Arg-Ile-Gly-Ser-Met-Ser-Gly-Leu-Gly-Cys-OH (DLRVDTKSRAAWARLLQEHPNARKYKGANKKGLSKGCFGLKLDRIGSMSGLGC-OH; cysteine pairing not given here) [Peptide 1]”, the “inhibition of HBV replication as compared to the virus control infection” value [1] was 65.7%, the “inhibition of HCMV plaque formation as compared to the virus control experiment” value (HCMV strain AD169) was “did not inhibit” and the “inhibition of the tube formation of human endothelial cells” value (HUVEC) was 34%.
For “Ala-Gly-Glu-Gly-Leu-Asn-Ser-Gln-Phe-Trp-Ser-Leu-Ala-Ala-Pro-Gln-Arg-Phe-NH2 (AGEGLNSQFWSLAAPQRF-NH2) [Peptide 2]”, the “inhibition of HBV replication as compared to the virus control infection” value [1] was 42.6%, the “IFNγ spleen cells; TH1 response (% of control)” value [2] was 84.8 % of control and the “IL-2 spleen cells (% of control)” value [2] was 0.0 % of control. The “IL-4 spleen cells; TH2 response (% of control)” value [2] was 0.0 % of control, the “IL-5 spleen cells; TH2 response (% of control)” value [2] was 52.2 % of control and the “TNF-a spleen cells; TH1 response (% of control)” value [2] was 92.1 % of control. For the same compound, the “inhibition of HCMV plaque formation as compared to the virus control experiment” value (HCMV strain AD169) was “did not inhibit” and the “inhibition of the tube formation of human endothelial cells” value (HUVEC) was “did not inhibit”.
In the case of `Nc1nc(O)c2ncn(COC(CO)CO)c2n1` [Ganciclovir, reference compound], the “antiviral activity of positive control compound” value (HCMV strain AD169; positive control, HCMV AD169 in MRC-5 cells) is reported as “expected levels of antiviral activity”.
With `CC(C)(C)NC(=O)[C@@H]1CN(Cc2cccnc2)CCN1C[C@@H](O)C[C@@H](Cc1ccccc1)C(=O)N[C@H]1c2ccccc2C[C@H]1O` [indinavir] the “antiviral activity of positive control compounds” value (HIV-1IIIB) was “expected levels of antiviral activity”.
`Cc1cn([C@H]2C[C@H](N=[N+]=[N-])[C@@H](CO)O2)c(=O)[nH]c1=O` [AZT] was tested, and the “antiviral activity of positive control compounds” value (HIV-1IIIB) was “expected levels of antiviral activity”.
